Data on 5 molecules can be found in patent US6794409B2, “Use of ERβ-selective ligands for regulating fertility and compounds useful therefor” (priority 2001, dated 2004).

The subject of experiment [1] is hypophysectomized immature female Wistar rats. The experiment in a line: Effect on late folliculogenesis and ovulation in hypophysectomized rats. In kind it is in vivo, rat. Particulars: hypex immature Wistar rats; 0.01, 0.1 and 1 mg/day s.c. for 4 days, then PMSG and hCG; FIG. 3. The procedure:
Intact immature female Wistar rats were hypophysectomized (hypex) on day 24 of age (day 0). The following hormone treatments were initiated six days after surgery:
(§1) (a) hypex rats treated with vehicle (control group) (ethanol/arachisoil: 1+9 [v/v]) only
(b) hypex rats treated with 0.01, 0.1 and 1 mg 17β-estradiol/day
(c) hypex rats treated with 0.01, 0.1 and 1 mg of the ERα-selective compound B
(d) hypex rats treated with 0.01, 0.1 and 1 mg of the […] compound C
Animals were subcutaneously treated once per day for 4 consecutive days with the respective compounds or vehicle (day 6, 7, 8, 9). Number of animals per group were […]. The animals were randomly assigned to the treatment and vehicle (control) group.
One day after the last injection (day 10) animals were subcutaneously injected with 20 IU prgenant mare serum gonadotropin (PMSG). Two days later, at […], 10 IU human Chorionic Gonadotropin (hCG) were injected intraperitoneally in order to induce ovulation. At day 14 animals were weighed and sacrificed by carbon dioxide asphyxiation. The oviducts and ovaries were removed:
The oviducts were flushed with a M-2 medium and the oocytes per animal were counted after enzymatic disassociation from the surrounding cumulus with M-2 medium supplemented with 0.3% hyaluironidase. For each treatment group and control group the mean number of ovulated oocytes were calculated.
The ovaries were excised and weighed. Relative ovarian weights (in milligrams), defined as relative ovarian wet weights, were calculated per 100 g body weight for each animal. For each treatment group and control group the mean relativewet weights were determined.
The one way ANOVA was applied to the data in order to compare treatment group values with the respective control group.

Experiment [2] has the same test system. The experiment can be described thus: Effect of ER-selective ligands on folliculogenesis in hypophysectomized rats. It is filed as in vivo, rat. Particulars: hypex immature Wistar rats.
Description: Intact immature female Wistar rats were hypophysectomized (hypex) on day 24 of age (d0). The following hormone treatments were initiated six days after surgery:
as §1
Animals were subcutaneously treated once per day for 4 consecutive days with the respective compounds or vehicle (day 6, 7, 8, 9). Number of animals per group were 5-6. The animals were randomly assigned to the treatment and vehicle (control) group.
One day after the last injection (day 10) animals were weighed and sacrificed by carbon dioxide asphyxiation. The ovaries were excised and weighed. Relative ovarian weights (in milligrams), defined as relative ovarian wet weights, were calculated per 100 g body weight for each animal. For each treatment group and control group the mean relative wet weights were determined. The one way ANOVA was applied to the data in order to compare treatment group values with the respective control group.
For histological evaluation, ovaries were placed in neutral buffered 3.7% formaldehyde solution. The ovaries were then embedded in paraffin, cut into 4 μm transverse sections, and stained with hematoxylin and eosin. Ovarian sections were then evaluated qualitatively for folliculogenesis.

The subject of experiment [3] is hERβ. The following applies: cited from earlier work.
The test system of experiment [4] is hERβ. The experiment in a line: Relative binding affinity to hERβ (Kuiper et al.). Particulars: quotient of RBA hERβ / hERα. Also noted: species or system human. From the text: (§2) In this case, it is assumed that ERβ predominates in the rat prostates over ERα, and ERα predominates in rat uteri over ERβ.
For experiment [5], the system named is estrogen receptor preparations from rat prostates. The experiment can be described thus: Competitive 3H-estradiol binding, rat prostate cytosol.
Description: as §2

The subject of experiment [6] is estrogen receptor preparations from rat uteri. The experiment can be described thus: Competitive 3H-estradiol binding, rat uterus cytosol. The following applies: 3H-estradiol as ligand, estradiol = 100.
Description: as §2

Experiment [7] has as its system intact immature female Wistar rats. The experiment in a line: Effect on ovulation rate after superovulation (PMSG/hCG) of immature rats. In kind it is in vivo, rat. The procedure:
Superovulation experiments were carried out in three groups of intact immature female Wistar rats on day 23 of age. Number of animals per group were 5. The animals were randomly assigned to the three groups.
Each animal received a single subcutaneous (s.c.) injection of 20 I.U. pregnant mare's serum gonadotropin (PMSG) at day 0. At the same time (day 0) as well as 24 hours and 48 hours later the animals were s.c. injected with
(a) the vehicle formulation (control group: ethanol/aracisoil: 1+9 [v/v]) (group 1) or
(b) an ERβ- selective antagonist 17-Chloro-17aα-(trifluoromethyl)-17a-homoestra-1,3,5(10)16-tetraene-3,17aβ-diol (compound E) at the dose of 1 mg/kg (group 2) and 10 mg/kg (group 3). 54 hours after the start of the experiment the animals got a single intraperitoneal (i.p.) injection of 10 I.U. human chorion gonadotropin (hCG). The animals were then killed 16 hours after the hCG injection.
The ovaries and oviducts were removed. The ovulated oocyte/cumulus mass was extracted from the oviduct by flushing the oviduct with M-2 medium and the oocytes per animal were counted after enzymatic disassociation from the surrounding cumulus with M-2 medium supplemented with 0.3% hyaluronidase.

Where two headings read alike, the source gives them in different places.

For `C[C@]12CC[C@@H]3c4ccc(O)cc4CC[C@H]3[C@@H]1C[C@H]1OC(=O)C[C@]12O` [compound B, 3,17β-Dihydroxy-19-nor-17α-pregna-1,3,5(10)-triene-21,16α-lactone], in experiment [1], the “number of ovulated oocytes” value is on record as “not able to significantly stimulate” and the ovarian wet weight result was “not able to significantly stimulate”. Moreover, the ovarian wet weight entry in experiment [2] (0.01, 0.1 and 1 mg/day s.c. for 4 days, FIG. 1) is given as “not able to stimulate ovarian growth”. In experiment [2] (s.c. for 4 days, hematoxylin and eosin sections, FIG. 2), the “folliculogenesis, histological evaluation of ovaries” value is on record as “many small atretic follicles comparable to the vehicle control group”.
On to `C=C[C@@]12CCc3cc(O)ccc3[C@H]1CC[C@@]1(C)[C@H]2CC[C@@H]1O` [compound C, 8β-Vinyl-1,3,5(10)-estratriene-3,17β-diol], for which, in experiment [1], the “number of ovulated oocytes” value was “significantly increase the number of ovulated oocytes” and the ovarian wet weight entry was “significantly increase”.
`C[C@]12CC[C@@H]3c4ccc(O)cc4CC[C@H]3[C@@H]1C[C@@H](O)[C@@H]2O` [Estriol]: in experiment [3] (relative binding affinity, estradiol = 100), the “hERβ RBA” value was 21.
With `C[C@]12CC[C@H]3[C@@H](CC=C4C[C@@H](O)CC[C@@]43C)[C@@H]1CC[C@@H]2O` [5-Androstenediol], in experiment [3], the “hERβ RBA” value is 17. This molecule also displayed an ERβ/ERα in experiment [4] of 3. Besides, in experiment [5] (rat prostate cytosol, 3H-estradiol as ligand, estradiol = 100), the “Rat prost. ER(RBA)” value was 5. Also, the “prost. ER/uterus ER” value in experiment [5] (ratio of RBA rat prostate ER / rat uterus ER) is 50. Moreover, the “Rat uterus ER(RBA)” value in experiment [6] was 0.1.
With `CC12CCC3c4ccc(O)cc4CCC3C1CC=C(Cl)C2(O)C(F)(F)F` (stereo not drawn) [compound E, 17-Chloro-17aα-(trifluoromethyl)-17a-homoestra-1,3,5(10)16-tetraene-3,17aβ-diol], the “Ovulation rate (ova/rat) [x ± sd]” value was determined as 11 ± 5.6 ova/rat in experiment [7] (1 mg/kg/day × 3 days s.c., group 2); 8 ± 7.2 ova/rat in experiment [7] (10 mg/kg/day × 3 days s.c., group 3); 8.0 ova/rat in experiment [7] (10 mg/kg/day × 3 days s.c., group 3, listed as ERβ-specific antagonist).
